Measured values: patent US20260098026A1, “M4 ACTIVATORS/MODULATORS AND USES THEREOF” (Cerevel Therapeutics, LLC, priority 2022, published 2026)

How the values were obtained:
[1] = target: T1, M3 muscarinic acetylcholine receptor (mAChR) (Homo sapiens, UniProt P20309); assay: FLIPR calcium assay (Fluo 8), M3-overexpressing CHO-K1 cells; assay type: cell-based
T1 construct: expressed in transfected cells; host or cells: CHO-K1
Description: Stimulation of a Gq-coupled G-protein coupled receptors (GPCRs), result in an efflux of calcium from the endoplasmic reticulum to the cytoplasm (Berridge, 1993), thus rendering this assay appropriate for the assessment of M1, M3 and M5 receptors. CHO-K1 cells overexpressing the M1, M3, or M5 muscarinic acetylcholine receptor (mAChR) were dispensed at 15,000 cells per well in 30 μl volume to 384-well plates and grown overnight at 37° C. in a 5% CO2 atmosphere. Fluo-8 Solution, 10 μl per well, was added to each well and incubated for 30 minutes at 37° C. in a 5% CO2 atmosphere. Compounds diluted in Hanks' balanced salt solution (HBSS) were transferred to the cell assay plate at 10 μl per well, and then read on a FLIPR instrument. EC50 and Emax figures were calculated from the resulting data for each receptor subtype.

M4 mAChR = target: T2, M4 mAChR (Homo sapiens, UniProt P08173); assay: cAMP TR-FRET assay with forskolin, M4-overexpressing CHO-K1 cells; assay type: cell-based
T2 construct: expressed in transfected cells; host or cells: CHO-K1
T2 sequence (P08173 1-479): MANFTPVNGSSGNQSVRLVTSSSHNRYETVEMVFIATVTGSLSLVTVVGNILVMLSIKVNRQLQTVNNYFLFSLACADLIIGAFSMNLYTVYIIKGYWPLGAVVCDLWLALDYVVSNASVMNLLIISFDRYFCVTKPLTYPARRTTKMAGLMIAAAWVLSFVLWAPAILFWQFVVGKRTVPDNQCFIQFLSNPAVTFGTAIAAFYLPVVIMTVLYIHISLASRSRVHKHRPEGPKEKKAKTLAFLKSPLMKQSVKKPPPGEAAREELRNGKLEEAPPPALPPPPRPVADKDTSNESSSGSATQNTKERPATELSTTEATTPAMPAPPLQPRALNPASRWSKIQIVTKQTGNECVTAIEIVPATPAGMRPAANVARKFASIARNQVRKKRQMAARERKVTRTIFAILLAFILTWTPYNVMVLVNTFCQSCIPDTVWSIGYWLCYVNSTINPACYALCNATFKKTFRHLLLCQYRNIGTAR
Description: The M2 and M4 mACh receptors are Gi-coupled receptors which, upon activation, produce a decrease in cAMP. Assays were developed that measured the potency and efficacy of compounds at the M2 or M4 mAChR using M2- or M4-overexpressing CHO-K1 cell lines. Time-resolved fluorescence resonance energy transfer (TR-FRET) technology was used, where signal occurs as a result of transfer of energy if the donor molecule is in close proximity to an acceptor molecule when the molecules have bound to the molecule of interest. The cAMP detection is a competition binding assay, where cAMP produced by cells competes for binding with the labeled donor molecule to the anti-cAMP acceptor antibody. Due to the low basal levels of cAMP in the CHO-K1 cell line, forskolin was used to increase cAMP levels to enable assessment of agonist activity at the mAChR of interest.

T1 sequence (P20309 whole entry): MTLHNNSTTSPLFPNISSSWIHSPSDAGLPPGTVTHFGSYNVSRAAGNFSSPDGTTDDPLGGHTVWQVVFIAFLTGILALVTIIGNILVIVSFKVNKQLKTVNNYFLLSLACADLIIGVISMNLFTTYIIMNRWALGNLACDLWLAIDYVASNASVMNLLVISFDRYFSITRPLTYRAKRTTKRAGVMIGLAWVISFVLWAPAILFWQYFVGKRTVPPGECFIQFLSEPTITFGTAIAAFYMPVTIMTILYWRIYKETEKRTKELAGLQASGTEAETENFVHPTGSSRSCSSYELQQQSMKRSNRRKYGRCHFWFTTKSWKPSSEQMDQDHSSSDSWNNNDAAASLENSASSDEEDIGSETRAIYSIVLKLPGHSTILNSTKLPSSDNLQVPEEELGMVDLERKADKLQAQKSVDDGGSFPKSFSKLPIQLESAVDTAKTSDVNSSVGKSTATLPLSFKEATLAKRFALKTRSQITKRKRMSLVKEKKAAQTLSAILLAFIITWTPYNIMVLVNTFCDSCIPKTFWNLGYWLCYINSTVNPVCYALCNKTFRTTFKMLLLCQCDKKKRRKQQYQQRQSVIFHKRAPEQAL

SMILES	EC50 ([1]; FLIPR) [µM]	Emax (M4 mAChR; cAMP assay) [%]	EC50 ([1]; FLIPR calcium) [µM]	Emax (M4 mAChR; cAMP TR-FRET with forskolin) [%]
CCOC(=O)N1CC2(CC[C@@H](N3CCN(c4cc(F)cnc4-c4ccc(OC)cc4C#N)CC3)C2)C1 [Compound A152]	> 10	80 to 100	–	–
CCOC(=O)N1CC2(CC[C@@H](N3CCN(c4cc(F)cnc4-c4cccc(F)c4O)CC3)C2)C1 [Compound A118]	–	–	> 10	80 to 100
CCOC(=O)N1CC2(CC[C@@H](N3CCN(c4cc(F)cnc4-c4ccc(CCO)cc4)CC3)C2)C1 [Compound A169]	> 10	80 to 100	–	–
CCOC(=O)N1CC2(CC[C@@H](N3CCN(c4cc(F)cnc4-c4ccc(=O)n(CC)c4)CC3)C2)C1 [Compound A155]	> 10	80 to 100	–	–
CCOC(=O)N1CC2(CC[C@@H](N3CCN(c4cc(F)cnc4C4=CCN(C)CC4)CC3)C2)C1 [Compound A197]	> 10	80 to 100	–	–
CCOC(=O)N1CC2(CC[C@@H](N3CCN(c4cc(F)cnc4-c4ccc(O)c(F)c4)CC3)C2)C1 [Compound A44]	–	–	> 10	80 to 100
CCOC(=O)N1CC2(CC[C@@H](N3CCN(c4cc(F)cnc4-c4cc(C)nc(F)c4)CC3)C2)C1 [Compound A125]	–	–	> 10	80 to 100
CCOC(=O)N1CC2(CC[C@@H](N3CCN(c4cc(F)cnc4-c4ccncc4C#N)CC3)C2)C1 [Compound A64]	–	–	> 10	80 to 100
CCOC(=O)N1CC2(CC[C@@H](N3CCN(c4cc(F)cnc4-c4cnc(C(F)(F)F)cn4)CC3)C2)C1 [Compound A250]	> 10	80 to 100	–	–
CCOC(=O)N1CC2(CC[C@@H](N3CCN(c4cc(F)cnc4-c4cccc(CO)c4)CC3)C2)C1 [Compound A57]	–	–	> 10	80 to 100
CCOC(=O)N1CC2(CC[C@@H](N3CCN(c4cc(F)cnc4-c4ccccn4)CC3)C2)C1 [Compound A227]	> 10	80 to 100	–	–
CCOC(=O)N1CC2(CC[C@@H](N3CCN(c4cc(Cl)cnc4-c4ccc(F)cn4)CC3)C2)C1 [Compound A252]	> 10	80 to 100	–	–
CCOC(=O)N1CC2(CC[C@@H](N3CCN(c4cc(F)cnc4-c4ccc(C#N)cn4)CC3)C2)C1 [Compound A234]	> 10	80 to 100	–	–
CCOC(=O)N1CC2(CC[C@@H](N3CCN(c4cc(F)cnc4-c4cc(C)cnc4F)CC3)C2)C1 [Compound A108]	–	–	> 10	80 to 100
CCOC(=O)N1CC2(CC[C@@H](N3CCN(c4cc(C)cnc4-c4cnccn4)CC3)C2)C1 [Compound A255]	> 10	80 to 100	–	–
CCOC(=O)N1CC2(CC[C@@H](N3CCN(c4cc(F)cnc4-c4ccc(C)cn4)CC3)C2)C1 [Compound A228]	> 10	80 to 100	–	–
CCOC(=O)N1CC2(CC[C@@H](N3CCN(c4cc(F)cnc4-c4ccc(F)cn4)CC3)C2)C1 [Compound A218]	> 10	80 to 100	–	–
CCOC(=O)N1CC2(CC[C@@H](N3CCN(c4cc(F)cnc4C4=CCOCC4)CC3)C2)C1 [Compound A193]	> 10	80 to 100	–	–
CCOC(=O)N1CC2(CC[C@@H](N3CCN(c4cc(Cl)cnc4-c4nncs4)CC3)C2)C1 [Compound A249]	> 10	80 to 100	–	–
CCOC(=O)N1CC2(CCC(N3[C@@H]4CC[C@H]3CN(c3cc(F)cnc3-c3cnccn3)C4)C2)C1 (single isomer, unassigned) [Compound A223]	> 10	80 to 100	–	–
CCOC(=O)N1CC2(CC[C@@H](N3CCN(c4cc(F)cnc4-c4ncccc4F)CC3)C2)C1 [Compound A283]	> 10	80 to 100	–	–
CCOC(=O)N1CC2(CC[C@@H](N3CCN(c4cc(F)cnc4-c4ccn(CC)n4)CC3)C2)C1 [Compound A121]	–	–	> 10	80 to 100
CCOC(=O)N1CC2(CC[C@@H](N3CCN(c4cc(F)cnc4-c4ccnc(F)c4C)CC3)C2)C1 [Compound A114]	–	–	> 10	80 to 100
CCOC(=O)N1CC2(CC[C@@H](N3CCN(c4cc(Cl)cnc4-c4ccnc(C)n4)CC3)C2)C1 [Compound A248]	> 10	–	–	–
CCOC(=O)N1CC2(CC[C@H](N3CCN(c4cc(Cl)cnc4C4CCOCC4)CC3)C2)C1 (single isomer, unassigned) [Compound A16]	–	–	> 10	–

Now from value to molecule:

EC50 ([1]; FLIPR) [µM]	Emax (M4 mAChR; cAMP assay) [%]	EC50 ([1]; FLIPR calcium) [µM]	Emax (M4 mAChR; cAMP TR-FRET with forskolin) [%]	SMILES
–	–	> 10	50 to 79.9	CCOC(=O)N1CC2(CC[C@@H](N3CCN(c4cc(F)cnc4-c4cc(C)cnc4OC)CC3)C2)C1 [Compound A50]
–	–	> 10	80 to 100	CCOC(=O)N1CC2(CC[C@@H](N3CCN(c4cc(F)cnc4-c4c(C)noc4C)CC3)C2)C1 [Compound A78]
–	–	> 10	80 to 100	CCOC(=O)N1CC2(CC[C@@H](N3CCN(c4cc(F)cnc4-c4cnccn4)CC3)C2)C1 [Compound A6, (R)-ethyl 6-(4-(5-fluoro-2-(pyrazin-2-yl)pyridin-3-yl)piperazin-1-yl)-2-azaspiro[3.4]octane-2-carboxylate]
> 10	80 to 100	–	–	CCOC(=O)N1CC2(CC[C@@H](N3CCN(c4cc(F)cnc4-c4cn(C)nn4)CC3)C2)C1 [Compound A230]
–	–	> 10	80 to 100	CCOC(=O)N1CC2(CC[C@@H](N3CCN(c4cc(F)cnc4-c4ccn(C)n4)CC3)C2)C1 [Compound A120]
–	–	> 10	80 to 100	CCOC(=O)N1CC2(CC[C@@H](N3CCN(c4cc(F)cnc4-c4cnc(OCC)nc4)CC3)C2)C1 [Compound A132]
–	–	> 10	80 to 100	CCOC(=O)N1CC2(CC[C@@H](N3CCN(c4cc(F)cnc4-c4cccc(F)n4)CC3)C2)C1 [Compound A128]
–	–	> 10	80 to 100	CCOC(=O)N1CC2(CC[C@@H](N3CCN(c4cc(F)cnc4-c4ccc(F)cc4O)CC3)C2)C1 [Compound A115]
–	–	> 10	80 to 100	CCOC(=O)N1CC2(CC[C@@H](N3CCN(c4cc(F)cnc4-c4ccc5c(c4)OCCO5)CC3)C2)C1 [Compound A48]
–	–	> 10	80 to 100	CCOC(=O)N1CC2(CC[C@@H](N3CCN(c4cc(F)cnc4-c4cnn(CCOC)c4)CC3)C2)C1 [Compound A38]
> 10	80 to 100	–	–	CCOC(=O)N1CC2(CC[C@@H](N3CCN(c4cc(F)cnc4-c4cnc(C(F)F)cn4)CC3)C2)C1 [Compound A253]
–	–	> 10	80 to 100	CCOC(=O)N1CC2(CC[C@@H](N3CCN(c4cc(F)cnc4-c4ccc5cn(C)nc5c4)CC3)C2)C1 [Compound A68]
–	–	> 10	80 to 100	CCOC(=O)N1CC2(CC[C@@H](N3CCN(c4cc(F)cnc4-c4ccc(CO)cc4)CC3)C2)C1 [Compound A34]
–	–	> 10	80 to 100	CCOC(=O)N1CC2(CC[C@@H](N3CCN(c4cc(F)cnc4-c4ccnn4CC(C)C)CC3)C2)C1 [Compound A77]
–	–	> 10	80 to 100	CCOC(=O)N1CC2(CC[C@@H](N3CCN(c4cc(F)cnc4-c4cncc(C(C)(C)O)c4)CC3)C2)C1 [Compound A41]
–	–	> 10	80 to 100	CCOC(=O)N1CC2(CC[C@@H](N3CCN(c4cc(F)cnc4-n4cc(C)cn4)CC3)C2)C1 [Compound A10, ethyl (6R)-6-[4-[5-fluoro-2-(4-methylpyrazol-1-yl)-3-pyridyl]piperazin-1-yl]-2-azaspiro[3.4]octane-2-carboxylate]
> 10	80 to 100	–	–	CCOC(=O)N1CC2(CC[C@@H](N3CCN(c4cc(F)cnc4-c4ccc(C#N)cc4)CC3)C2)C1 [Compound A182]
–	–	> 10	80 to 100	CCOC(=O)N1CC2(CC[C@@H](N3CCN(c4cc(F)cnc4-c4ccc(C#N)c(OC)c4)CC3)C2)C1 [Compound A43]
–	–	> 10	80 to 100	CCOC(=O)N1CC2(CC[C@@H](N3CCN(c4cc(F)cnc4-c4c[nH]nc4C(F)(F)F)CC3)C2)C1 [Compound A85]
> 10	80 to 100	–	–	CCOC(=O)N1CC2(CC[C@@H](N3CCN(c4cc(F)cnc4-c4ccc(F)c(O)c4)CC3)C2)C1 [Compound A156]
> 10	80 to 100	–	–	CCOC(=O)N1CC2(CC[C@@H](N3CCN(c4cc(F)cnc4-c4cncnc4C)CC3)C2)C1 [Compound A181]
–	–	> 10	–	CCOC(=O)N1CC2(CC[C@@H](N3CCN(c4cc(F)cnc4-c4cccc5cn(C)nc45)CC3)C2)C1 [Compound A66]
